Measured values as given in patent US20230331691A1, “TREPROSTINIL DERIVATIVE COMPOUNDS AND METHODS OF USING SAME” (CORSAIR PHARMA, INC., priority 2013, published 2023).

What was measured:
[1] = Human liver microsomal stability assay (Test 1); type: in vitro ADME; conditions: human liver microsomes, 0.5 uM test compound, 37° C., up to 45 minutes, pH 7.4, NADPH generating system; read-out: Test 1 T½
Description: (Test 1) Human liver microsomal stability assay was conducted by incubating 0.5 uM test compounds at 37° C. for up to 45 minutes in 50 mM of potassium phosphate buffer (pH 7.4) containing 0.5 mg of microsomal protein and 50 µL of NADPH generating system (7.8 mg of glucose 6-phosphate, 1.7 mg of NADPH and 6 U of glucose 6-phosphate dehydrogenase per mL in 2% w/v of sodium bicarbonate). At 0, 5, 15, 30 and 45 min., an aliquot was taken, quenched with internal standard containing stop solution. No co-factor controls at 45 minutes were also prepared. After incubation, the samples were analyzed by LC-MS/MS. Peak area ratios of analyte to internal standard were used to calculate the intrinsic clearance. The intrinsic clearance (CLint) was determined from the first order elimination constant by non-linear regression. Formation of the active drug Compound A over the time course was also monitored by LC-MS/MS analysis.

[2] = Human plasma stability assay (Test 2); type: in vitro ADME; conditions: heparinated human plasma, 0.5 uM test compound, 37° C., up to 120 minutes; read-out: Test 2 T½
Description: (Test 2) Human plasma stability assay was conducted by incubating 0.5 uM test compounds at 37° C. for up to 120 minutes in heparinated human plasma. At 0, 5, 15, 30, 60 and 120 […] min., an aliquot was taken, quenched with internal standard containing stop solution. After incubation, the samples were analyzed by LC-MS/MS. Peak area ratios of analyte to internal standard were used to calculate the half-life. Formation of the active drug Compound A over the time course was also monitored by LC-MS/MS analysis.

In the case of CCCCC[C@H](O)CC[C@@H]1[C@H]2Cc3cccc(OCC(=O)OCC4CC4)c3C[C@H]2C[C@H]1O [Compound 1, [2-Hydroxy-1-(3-hydroxy-octyl)-2,3,3a,4,9,9a-hexahydro-1H-cyclopenta[b]naphthalen-5-yloxy]-acetic acid cyclopropylmethyl ester], the half-life at 0.5 uM [1] is reported as < 15 min and the half-life at 0.5 uM [2] is reported as < 15 min.

With CCCCC[C@H](O)CC[C@@H]1[C@H]2Cc3cccc(OCC(=O)OCCCF)c3C[C@H]2C[C@H]1O [Compound 4, [2-Hydroxy-1-(3-hydroxy-octyl)-2,3,3a,4,9,9a-hexahydro-1H-cyclopenta[b]naphthalen-5-yloxy]-acetic acid 3-fluoro-propyl ester] the half-life at 0.5 uM [1] was < 15 min and the half-life at 0.5 uM [2] was < 15 min.

With CCCCC[C@H](O)CC[C@@H]1[C@H]2Cc3cccc(OCC(=O)OC4CCOC4)c3C[C@H]2C[C@H]1O (some centres unmarked) [Compound 5, [2-Hydroxy-1-(3-hydroxy-octyl)-2,3,3a,4,9,9a-hexahydro-1H-cyclopenta[b]naphthalen-5-yloxy]-acetic acid tetrahydro-furan-3-yl ester] the half-life at 0.5 uM [1] was < 15 min and the half-life at 0.5 uM [2] was < 15 min.

In the case of CCCCC[C@H](O)CC[C@@H]1[C@H]2Cc3cccc(OCC(=O)O[C@H](C)C(=O)OC)c3C[C@H]2C[C@H]1O [Compound 6, 2-{2-[2-Hydroxy-1-(3-hydroxy-octyl)-2,3,3a,4,9,9a-hexahydro-1H-cyclopenta[b]naphthalen-5-yloxy]-acetoxy}-propionic acid methyl ester], the half-life at 0.5 uM [1] is reported as < 15 min and the half-life at 0.5 uM [2] is reported as < 15 min.

In the case of CCCCC[C@H](O)CC[C@@H]1[C@H]2Cc3cccc(OCC(=O)NCCN)c3C[C@H]2C[C@H]1O [Compound 8, N-(2-Amino-ethyl)-2-[2-hydroxy-1-(3-hydroxy-octyl)-2,3,3a,4,9,9a-hexahydro-1H-cyclopenta[b]naphthalen-5-yloxy]-acetamide], the half-life at 0.5 uM [1] is reported as 31 to 60 min.

For CCCCC[C@H](O)CC[C@@H]1[C@H]2Cc3cccc(OCC(=O)OCCO)c3C[C@H]2C[C@H]1O [Compound 9, [2-Hydroxy-1-(3-hydroxy-octyl)-2,3,3a,4,9,9a-hexahydro-1H-cyclopenta[b]naphthalen-5-yloxy]-acetic acid 2-hydroxy-ethyl ester], the half-life at 0.5 uM [1] was < 15 min.

In the case of CCCCC[C@H](O)CC[C@@H]1[C@H]2Cc3cccc(OCC(=O)OCCOC)c3C[C@H]2C[C@H]1O [Compound 10, [2-Hydroxy-1-(3-hydroxy-octyl)-2,3,3a,4,9,9a-hexahydro-1H-cyclopenta[b]naphthalen-5-yloxy]-acetic acid 2-methoxy-ethyl ester], the half-life at 0.5 uM [1] is reported as < 15 min.

With CCCCC[C@H](O)CC[C@@H]1[C@H]2Cc3cccc(OCC(=O)NCCCO)c3C[C@H]2C[C@H]1O [Compound 11, 2-[2-Hydroxy-1-(3-hydroxy-octyl)-2,3,3a,4,9,9a-hexahydro-1H-cyclopenta[b]naphthalen-5-yloxy]-N-(3-hydroxy-propyl)-acetamide] the half-life at 0.5 uM [1] was < 15 min and the half-life at 0.5 uM [2] was > 60 min.

In the case of CCCCC[C@H](O)CC[C@@H]1[C@H]2Cc3cccc(OCC(=O)NCC(=O)OC)c3C[C@H]2C[C@H]1O [Compound 12, {2-[2-Hydroxy-1-(3-hydroxy-octyl)-2,3,3a,4,9,9a-hexahydro-1H-cyclopenta[b]naphthalen-5-yloxy]-acetylamino}-acetic acid methyl ester], the half-life at 0.5 uM [1] is reported as < 15 min and the half-life at 0.5 uM [2] is reported as > 60 min.

In the case of CCCCC[C@H](O)CC[C@@H]1[C@H]2Cc3cccc(OCC(=O)NCC(F)(F)C(F)(F)F)c3C[C@H]2C[C@H]1O [Compound 21, 2-[2-Hydroxy-1-(3-hydroxy-octyl)-2,3,3a,4,9,9a-hexahydro-1 H-cyclopenta[b]naphthalen-5-yloxy]-N-(2,2,3,3,3-pentafluoro-propyl)-acetamide], the half-life at 0.5 uM [1] is reported as < 15 min and the half-life at 0.5 uM [2] is reported as > 60 min.
